Converted amounts (≈) assume the structure as drawn. Structures can show the parent of a compound that is named as a salt. Where two headings read alike, the source gives them in different places.
Assays:
Type in all cases: cell-based
[1] = system: Staphylococcus aureus NRS384 (MRSA); assay: Broth microdilution MIC, S. aureus NRS384 (MRSA); conditions: Staphylococcus aureus, read-out: MIC NRS 384 (MRSA)
Outline: (§1)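 Broth microdilution in strain-specific test medium with ~5.0×10^5 cfu/ml inoculum, 1% DMSO and two-fold compound dilutions from 64 to 0.0625 μg/ml. Plates were held 20 hours at 37° C in ambient air. S. pneumoniae colonies were grown beforehand on blood agar in 5% CO2.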

[2] = system: Staphylococcus aureus ATCC 29213 (MSSA); assay: Broth microdilution MIC, S. aureus ATCC 29213 (MSSA); conditions: read-out: MIC S. aureus ATCC 29213 (MSSA)
Outline: as §1

[3] = system: Enterococcus faecalis ATCC 29212; assay: Broth microdilution MIC, E. faecalis ATCC 29212; conditions: read-out: MIC E. faecalis ATCC 29212
Outline: as §1

[4] = system: Enterococcus faecium ATCC 700221 (VRE); assay: Broth microdilution MIC, E. faecium ATCC 700221 (VRE); conditions: Enterococcus faecium, read-out: MIC E. faecium ATCC 700221 (VRE)
Outline: as §1

[5] = system: Streptococcus pneumoniae ATCC 49619; assay: Broth microdilution MIC, S. pneumoniae ATCC 49619; conditions: read-out: MIC S. pneumoniae ATCC 49619
Outline: as §1

[6] = system: Bacillus subtilis ATCC 6633; assay: Broth microdilution MIC, B. subtilis ATCC 6633; conditions: read-out: MIC B. subtilis ATCC 6633
Outline: as §1

[7] = system: Escherichia coli ATCC 25922; assay: Broth microdilution MIC, E. coli ATCC 25922 (MHIIB w & w/o 4 mM EDTA); conditions: for MIC: Escherichia coli, read-out: MIC E. coli ATCC 25922; for MIC E. coli ATCC 25922 + 4 mM EDTA: with 4 mM EDTA
Outline: as §1

[8] = broth microdilution, 37° C., 20 hours
[9] = ATCC29212, broth microdilution, 37° C., 20 hours
[10] = ATCC49619, broth microdilution, 37° C., 20 hours
[11] = ATCC6633, broth microdilution, 37° C., 20 hours
[12] = ATCC25922, without EDTA, broth microdilution, 37° C., 20 hours

Row | Compound | MIC [1, 8] [µg/mL] | MIC [2, 8] [µg/mL] | MIC [3, 9] [µg/mL] | MIC [4, 8] [µg/mL] | MIC [5, 10] [µg/mL] | MIC [6, 11] [µg/mL] | MIC [7, 12] [µg/mL] | MIC E. coli ATCC 25922 + 4 mM EDTA [7, 8] [µg/mL] | MIC ([1]; 20 h) [µg/mL] | MIC ([2]; 20 h) [µg/mL] | MIC ([3]; ATCC29212, 20 h) [µg/mL] | MIC ([4]; 20 h) [µg/mL] | MIC ([5]; ATCC49619, 20 h) [µg/mL] | MIC ([6]; ATCC6633, 20 h) [µg/mL] | MIC ([7]; ATCC25922, 20 h) [µg/mL]
1 | Cc1nnc(CCn2ncc3nc(NCc4ccc(Cl)c(Cl)c4)[nH]c(=O)c32)o1 [Compound 233, 5-((3,4-dichlorobenzyl)amino)-1-(2-(5-methyl-1,3,4-oxadiazol-2-yl)ethyl)-1H-pyrazolo[4,3-d]pyrimidin-7(6H)-one] | 4 (≈ 9.52 µM) | 4 (≈ 9.52 µM) | 4 (≈ 9.52 µM) | 2 (≈ 4.76 µM) | 2 (≈ 4.76 µM) | 2 (≈ 4.76 µM) | > 64 | 64 |  |  |  |  |  |  | 
2 | Cl.O=c1[nH]c(NCc2ccc(Cl)c(Cl)c2)nc2cnn(CCc3nnc(CO)o3)c12 [Compound 234, 5-((3,4-dichlorobenzyl)amino)-1-(2-(5-(hydroxymethyl)-1,3,4-oxadiazol-2-yl)ethyl)-1H-pyrazolo[4,3-d]pyrimidin-7(6H)-one hydrochloride] | 64 | 64 | 32 | 8 | 16 | 16 | > 64 | >64 |  |  |  |  |  |  | 
3 | COCc1nnc(CCn2ncc3nc(NCc4ccc(Cl)c(Cl)c4)[nH]c(=O)c32)o1.Cl [Compound 235, 5-((3,4-dichlorobenzyl)amino)-1-(2-(5-(methoxymethyl)-1,3,4-oxadiazol-2-yl)ethyl)-1H-pyrazolo[4,3-d]pyrimidin-7(6H)-one hydrochloride] | 16 | 8 | 8 | 4 | 8 | 4 | > 64 | >64 |  |  |  |  |  |  | 
4 | Cl.O=c1[nH]c(NCc2ccc(Cl)c(Cl)c2)nc2cnn(CC3C(O)C4CCN3CC4)c12 (stereo not shown) [Compound 236, 5-((3,4-Dichlorobenzyl)amino)-1-((3-hydroxyquinuclidin-2-yl)methyl)-1H-pyrazolo[4,3-d]pyrimidin-7(6H)-one] | > 64 | > 64 | 64 | 64 | 8 | 32 | > 64 | 64 |  |  |  |  |  |  | 
5 | NS(=O)(=O)CCn1ncc2nc(NCc3ccc(Cl)c(Cl)c3)[nH]c(=O)c21 [Compound 237, 2-(5-((3,4-dichlorobenzyl)amino)-7-oxo-6,7-dihydro-1H-pyrazolo[4,3-d]pyrimidin-1-yl)ethanesulfonamide] | 32 (≈ 76.7 µM) | 32 (≈ 76.7 µM) | 32 (≈ 76.7 µM) | 16 (≈ 38.3 µM) | 4 (≈ 9.59 µM) | 16 (≈ 38.3 µM) | > 64 | 64 |  |  |  |  |  |  | 
6 | CC(C)(C)NS(=O)(=O)CCn1ncc2nc(NCc3ccc(Cl)c(Cl)c3)[nH]c(=O)c21 [Compound 238, N-(tert-butyl)-2-(5-((3,4-dichlorobenzyl)amino)-7-oxo-6,7-dihydro-1H-pyrazolo[4,3-d]pyrimidin-1-yl)ethanesulfonamide] | 4 (≈ 8.45 µM) | 8 (≈ 16.9 µM) | 8 (≈ 16.9 µM) | 2 (≈ 4.22 µM) | 8 (≈ 16.9 µM) | 4 (≈ 8.45 µM) | > 64 | >64 |  |  |  |  |  |  | 
7 | C[C@@H](O)Cn1ncc2nc(NCc3ccc(Cl)c(Cl)c3)[nH]c(=O)c21 [Compound 239, (R)-5-((3,4-dichlorobenzyl)amino)-1-(2-hydroxypropyl)-1H-pyrazolo[4,3-d]pyrimidin-7(6H)-one] | 4 (≈ 10.9 µM) | 4 (≈ 10.9 µM) | 8 (≈ 21.7 µM) | 2 (≈ 5.43 µM) | 8 (≈ 21.7 µM) | 2 (≈ 5.43 µM) | > 64 | >64 |  |  |  |  |  |  | 
8 | C[C@H](O)Cn1ncc2nc(NCc3ccc(Cl)c(Cl)c3)[nH]c(=O)c21 [Compound 240, (S)-5-((3,4-dichlorobenzyl)amino)-1-(2-hydroxypropyl)-1H-pyrazolo[4,3-d]pyrimidin-7(6H)-one] | 4 (≈ 10.9 µM) | 4 (≈ 10.9 µM) | 8 (≈ 21.7 µM) | 4 (≈ 10.9 µM) | 4 (≈ 10.9 µM) | 2 (≈ 5.43 µM) | > 64 | >64 |  |  |  |  |  |  | 
9 | CN1CCC(O)(Cn2ncc3nc(NCc4ccc(Cl)c(Cl)c4)[nH]c(=O)c32)CC1.Cl [Compound 241, 5-((3,4-dichlorobenzyl)amino)-1-((4-hydroxy-1-methylpiperidin-4-yl)methyl)-1H-pyrazolo[4,3-d]pyrimidin-7(6H)-one hydrochloride] | 64 | 32 | 32 | 64 | 8 | 4 | > 64 | >64 |  |  |  |  |  |  | 
10 | CN1CCC(n2ncc3nc(NCc4ccc(Cl)c(Cl)c4)[nH]c(=O)c32)C1 (stereo not shown) [Compound 243, 5-((3,4-Dichlorobenzyl)amino)-1-(1-methylpyrrolidin-3-yl)-1H-pyrazolo[4,3-d]pyrimidin-7(6H)-one TFA salt] |  |  |  |  |  |  |  | 32 | 8 | 8 | 8 | 4 | 4 | 4 | > 64
11 | Cl.Cl.O=c1[nH]c(NCc2ccc(Cl)c(Cl)c2)nc2cnn(C3CCN(Cc4ccccn4)CC3)c12 [Compound 244, 5-((3,4-Dichlorobenzyl)amino)-1-(1-(pyridin-2-ylmethyl)piperidin-4-yl)-1H-pyrazolo[4,3-d]pyrimidin-7(6H)-one dihydrochloride] | 2 | 2 | 4 | 2 | 4 | 1 | > 64 | 16 |  |  |  |  |  |  | 
12 | Cl.Cl.O=c1[nH]c(NCc2ccc(Cl)c(Cl)c2)nc2cnn(C3CCN(Cc4cccnc4)CC3)c12 [Compound 245, 5-((3,4-Dichlorobenzyl)amino)-1-(1-(pyridin-3-ylmethyl)piperidin-4-yl)-1H-pyrazolo[4,3-d]pyrimidin-7(6H)-one dihydrochloride] | 2 | 2 | 4 | 1 | 2 | 1 | > 64 | 32 |  |  |  |  |  |  | 
13 | Cl.Cl.O=c1[nH]c(NCc2ccc(Cl)c(Cl)c2)nc2cnn(C3CCN(Cc4ccncc4)CC3)c12 [Compound 246, 5-((3,4-Dichlorobenzyl)amino)-1-(1-(pyridin-4-ylmethyl)piperidin-4-yl)-1H-pyrazolo[4,3-d]pyrimidin-7(6H)-one dihydrochloride] | 2 | 2 | 4 | 2 | 4 | 1 | > 64 | >64 |  |  |  |  |  |  | 
14 | Cl.Cl.O=c1[nH]c(NCc2ccc(Cl)c(Cl)c2)nc2cnn(C3CCN(CC4CCNCC4)CC3)c12 [Compound 247, 5-((3,4-dichlorobenzyl)amino)-1-(1-(piperidin-4-ylmethyl)piperidin-4-yl)-1H-pyrazolo[4,3-d]pyrimidin-7(6H)-one dihydrochloride] | 64 | 32 | 32 | 32 | 8 | 8 | > 64 | 64 |  |  |  |  |  |  | 

Source: patent publication US10723741B1, “DNA polymerase IIIC inhibitors and use thereof” (Acurx Pharmaceuticals, LLC, priority 2018, dated 2020)
